Experimental data taken from US20180111913A1, “SUBSTITUTED BENZOFURAN DERIVATIVES AS NOVEL ANTIMYCOBACTERIAL AGENTS” (priority 2015, published 2018).
In brackets after ≈: the same amount, converted by molar mass. Read-outs that look alike come from different tables or passages of the source.

Assays:
[1] = molecular target: Mtb Pks13-TE domain (wild-type) (Mycobacterium tuberculosis, UniProt I6X8D2); experiment: biochemical; assay type: biochemical; details: for loss / decrease in inhibitory activity compared to compound I: relative to compound I
Mtb strain mc^27000 = experiment: microbe, parasite or virus in culture; assay type: cell-based, Mycobacterium tuberculosis; details: for MIC: read-out: MIC
[2] = Pks13-TE, 20 μM 4-MUH, read-out: IC50
[3] = Mtb Pks13-TE domain, mean ± s.d. of triplicates, read-out: IC50
[4] = Mycobacterium tuberculosis, Mtb mc^27000, liquid medium, 96-well plates
[5] = Mtb mc^27000, liquid medium, 96-well plates
[6] = Mycobacterium tuberculosis, read-out: percentage inhibition observed (incomplete inhibition)

Sequence of Mtb Pks13-TE domain (wild-type) (I6X8D2 1451-1733): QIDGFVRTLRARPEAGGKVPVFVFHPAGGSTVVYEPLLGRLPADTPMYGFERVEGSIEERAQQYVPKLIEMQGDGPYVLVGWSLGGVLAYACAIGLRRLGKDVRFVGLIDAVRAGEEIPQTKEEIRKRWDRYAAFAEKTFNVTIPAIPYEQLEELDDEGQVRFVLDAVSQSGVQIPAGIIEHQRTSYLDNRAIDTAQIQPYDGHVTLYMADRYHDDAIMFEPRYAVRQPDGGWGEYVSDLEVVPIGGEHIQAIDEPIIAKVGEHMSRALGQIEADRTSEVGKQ

Compound | IC50 [1, 2] [µM] | MIC (Mtb strain mc^27000; [4]) [µM] | also measured
CNC(=O)c1c(-c2ccccc2)oc2cc(OCCN)cc(CN3CCCCC3)c12 [compound 91] | 10 |  | inhibition at 40 µM (Mtb strain mc^27000; Mycobacterium tuberculosis, at 40 μM, read-out: percentage inhibition observed (incomplete inhibition)): 34%
O=C(O)c1c(-c2ccccc2)oc2ccc(O)c(CN3CCCCC3)c12 [compound 14] |  |  | IC50 [1, 3]: 6.6 ± 0.7 µM; loss / decrease in inhibitory activity compared to compound I [1]: ~20 fold; whole-cell activity (Mtb growth inhibition), in words (Mtb strain mc^27000; Mtb mc^27000): completely abolished
CNC(=O)c1c(-c2ccnc(OC)c2)oc2cc(OC)cc(CN3CCCCC3)c12 [compound 86] | > 20 | > 20 | 
CNC(=O)c1c(-c2cccc(OC)c2)oc2ccc(O)c(CN3CCCCC3)c12 [compound 56] | 0.4 |  | MIC (Mtb strain mc^27000; [5]): 9.0 µM (≈ 3.55 µg/mL)
CCOC(=O)c1c(-c2ccccc2)oc2ccc(O)c(CCCCN3CCC3)c12 [compound 215] |  |  | MIC (Mtb strain mc^27000; [5]): <0.08 µM
CNC(=O)c1c(-c2cccc(O)c2)oc2ccc(O)c(CN3CCCCC3)c12 [compound 57] | 0.27 | 0.44 (≈ 0.167 µg/mL) | 
O=S(=O)(Nc1ccc2oc(-c3ccccc3)cc2c1CN1CCC(N2CCCCC2)CC1)C(F)(F)F [compound 100] | > 40 |  | inhibition at 20 µM (Mtb strain mc^27000; [6]): 6%
CNC(=O)c1c(-c2ccccc2)oc2cc(O)cc(CN3CCOCC3)c12 [compound 94] |  | > 20 | 
CCOC(=O)c1c(-c2ccccc2)oc2ccc(O)c(CCCN3CC(F)C3)c12 [compound 199] | 2.5 | 1.2 (≈ 0.477 µg/mL) | 
CCOC(=O)CCCC1CCN(CCCc2c(O)ccc3oc(-c4ccccc4)c(C(=O)OCC)c23)C1 (centres unmarked) [compound 161] | 0.8 |  | MIC (Mtb strain mc^27000; [5]): 1.0 µM (≈ 0.508 µg/mL)
CC(C)NCCc1c(O)ccc2oc(-c3ccc(O)cc3)c(C(=O)N(C)C)c12 [compound 209] | 1.8 |  | MIC (Mtb strain mc^27000; [5]): 0.45 µM (≈ 0.172 µg/mL)
CCOC(=O)c1c(-c2ccccc2)oc2ccc(OC)c(Cc3ccccc3)c12 [compound 19] | 50 | 50 (≈ 19.3 µg/mL) | 
CCOC(=O)c1c(-c2ccccc2)oc2ccc(O)c(CCN3CCOCC3)c12 [compound 229] | 5.8 | 3.2 (≈ 1.27 µg/mL) | 
CC(C)NC(=O)c1c(-c2ccc(O)cc2)oc2ccc(O)c(CCCN3CCC3)c12 [compound 214] |  |  | MIC (Mtb strain mc^27000; [5]): <0.08 µM
CCOC(=O)/C=C/CC1CCN(CCCc2c(O)ccc3oc(-c4ccccc4)c(C(=O)OCC)c23)C1 (centres unmarked) [compound 171] | 0.5 | 2.7 (≈ 1.37 µg/mL) | 
CCOC(=O)c1c(-c2ccccc2)oc2ccc(O)c(CCN3CCC(C)CC3)c12 [compound 149] |  | 2.3 (≈ 0.937 µg/mL) | 
CC(C)(C)OC(=O)NC1CCN(C(=O)c2c(-c3ccccc3)oc3ccc(O)c(CN4CCCCC4)c23)CC1 [compound 53] | 0.63 |  | MIC (Mtb strain mc^27000; [5]): 6.6 µM (≈ 3.52 µg/mL)
CNC(=O)c1c(-c2ccccc2)oc2cc(O)cc(CNC3CCOCC3)c12 [compound 95] |  | 8 (≈ 3.04 µg/mL) | 
CCOC(=O)c1c(-c2ccccc2)oc2ccc(OC)c(CN3CCCCC3)c12 [compound 23] |  | 35.8 (≈ 14.1 µg/mL) | IC50 [1, 3]: 35.8 ± 2.2 µM; IC50 ([1]; Pks13-TE, read-out: IC50 (unit inferred)): ~36 µM; loss / decrease in inhibitory activity compared to compound I [1]: > 100 fold
CNC(=O)c1c(-c2ccc(O)cc2)oc2ccc(O)c(CCCN3CCC3)c12 [compound 202] | 1.6 | 15 (≈ 5.71 µg/mL) | 
CCOC(=O)c1c(-c2ccccc2)oc2cc(CN3CCCCC3)cc(OC)c12 [compound 35] |  | 40 (≈ 15.7 µg/mL) | 
CNC(=O)c1c(-c2ccccc2)oc2ccc(O)c(CCCNCc3nonc3C)c12 [compound 195] |  |  | MIC (Mtb strain mc^27000; [5]): >40 µM
CNC(=O)c1c(-c2ccc(O)cc2)oc2ccc(O)c(CN3CCCC(CO)C3)c12 (centres unmarked) [compound 127] | 1.1 | 5 (≈ 2.05 µg/mL) | 
CNC(=O)c1c(-c2ccccc2)oc2cc(OCC(N)=O)cc(CN3CCCCC3)c12 [compound 90] |  |  | inhibition at 40 µM ([1]; at 40 μM, read-out: percentage inhibition observed (IC50 column, incomplete inhibition)): 31%; inhibition at 20 µM (Mtb strain mc^27000; [6]): 13%

Compound | IC50 [1, 2] [µM] | MIC (Mtb strain mc^27000; [4]) [µM] | also measured
CNC(=O)c1c(-c2ccccc2)oc2cc(O)cc(CNCCO)c12 [compound 96] |  | 9 (≈ 3.06 µg/mL) | 
CNC(=O)c1c(-c2cccnc2)oc2ccc(OC)c(CN3CCCCC3)c12 [compound 112] | 35.8 | > 40 | 
CNC(=O)c1c(-c2ccc(O)cc2)oc2ccc(O)c(CN3CCC(O)CC3)c12 [compound 120] | 0.5 | 4.2 (≈ 1.67 µg/mL) | 
CC(C)N1Cc2cc(O)cc3oc(-c4ccccc4)c(c23)C1=O [compound 71] | 9 | > 20 | 
CNC(=O)c1c(-c2ccccc2)oc2ccc(O)c(CCCN3CCC3)c12 [compound 200] | 4.4 | 0.6 (≈ 0.219 µg/mL) | 
CCOC(=O)c1c(-c2ccc(O)c(F)c2)oc2ccc(O)c(CN3CCCCC3)c12 [compound 59] | 0.29 | 0.3 (≈ 0.124 µg/mL) | 
CNC(=O)c1c(-c2ccccc2)oc2ccc(O)c(CN3CCCC(CO)C3)c12 (centres unmarked) [compound 135] | 2 | 0.5 (≈ 0.197 µg/mL) | 
CNC(=O)c1c(-c2cccc(O)c2)oc2cc(O)cc(CN3CCCCC3)c12 [compound 89] | 9 | 1.2 (≈ 0.457 µg/mL) | 
CNC(=O)c1c(-c2ccnc(O)c2)oc2cc(O)cc(CN3CCCCC3)c12 [compound 85] |  | > 10 | 
CNC(=O)c1c(-c2ccc(F)cc2)oc2cc(O)cc(CCN[C@H](CO)Cc3cnc[nH]3)c12 [compound 261] | 5 | 5 (≈ 2.26 µg/mL) | 
CCOC(=O)c1c(-c2ccc(C(N)=O)cc2)oc2ccc(O)c(CN3CCCCC3)c12 [compound 60] | 0.3 | 3.5 (≈ 1.48 µg/mL) | 
CCOC(=O)c1c(-c2ccc(F)cc2)oc2cc(O)cc(CCNC(C)CO)c12 (centres unmarked) [compound 77] | 6 | 3.3 (≈ 1.32 µg/mL) | 
CCOC(=O)c1c(-c2ccccc2)oc2ccc(O)c(CN3CCC(O)CC3)c12 [compound 117] | 0.18 | 5.6 (≈ 2.21 µg/mL) | 
CNC(=O)c1c(-c2ccnc(OC)c2)oc2cc(O)cc(CN3CCCCC3)c12 [compound 87] |  | 3.3 (≈ 1.31 µg/mL) | 
CCOC(=O)c1c(-c2ccccc2)oc2ccc(O)c(CCN3CCC(C#N)CC3)c12 [compound 228] | 3.6 | 5 (≈ 2.09 µg/mL) | 
CC[C@H](CO)NCCc1c(O)ccc2oc(-c3ccccc3)c(C(=O)NC)c12 [compound 234] | 5.3 | > 20 | 
CCOC(=O)c1c(-c2ccccc2)oc2ccc(O)c(CCCN3CCC(CO)CC3)c12 [compound 166] | 0.5 | 6.1 (≈ 2.67 µg/mL) | 
CCOC(=O)c1c(-c2ccccc2)oc2ccc(O)c(C)c12 [compound 12] | > 20 | 20 (≈ 5.93 µg/mL) | 
CNC(=O)c1c(-c2ccncc2)oc2cc(O)cc(CN3CCCCC3)c12 [compound 84] |  | 6.1 (≈ 2.23 µg/mL) | 
CCOC(=O)c1c(-c2ccccc2)oc2ccc(O)c(CCO)c12 [compound 106] |  | > 20 | 
CNC(=O)c1c(-c2ccccc2)oc2cc(O)cc(CS(=O)(=O)NC)c12 [compound 83] |  | > 20 | 
CCOC(=O)c1c(-c2ccccc2)oc2ccc(O)c(CC(=O)NC3CCC3)c12 [compound 131] |  |  | MIC (Mtb strain mc^27000; [5]): 7.2 µM (≈ 2.83 µg/mL)
CNC(=O)c1c(-c2ccc(NC(C)=O)cc2)oc2ccc(O)c(CN3CCCCC3)c12 [compound 66] |  | > 20 | 
CNC(=O)c1c(-c2ccccc2)oc2ccc(O)c(CCNc3ccccc3)c12 [compound 144] | > 40 |  | 

Compound | IC50 [1, 2] [µM] | MIC (Mtb strain mc^27000; [4]) [µM] | also measured
CCOC(=O)c1c(-c2ccccc2)oc2ccc(O)c(CCCO)c12 [compound 107] |  | > 20 | 
CCOC(=O)c1c(-c2ccccc2)oc2ccc(O)c(CCN3CC(C#N)C3)c12 [compound 227] | > 20 |  | 
CCOC(=O)c1c(-c2ccccc2)oc2ccc(O)c(CC(=O)N3CCCC3)c12 [compound 130] |  |  | MIC (Mtb strain mc^27000; [5]): 4.1 µM (≈ 1.61 µg/mL)
CCOC(=O)c1c(-c2ccccc2)oc2cc(NC(C)=O)cc(CN3CCCCC3)c12 [compound 30] |  | 20 to 27 (≈ 8.41 to 11.4 µg/mL) | 
CCOC(=O)c1c(-c2ccccc2)oc2ccc(O)c(CCN[C@@H](CC(N)=O)C(=O)O)c12 [compound 246] | 20 |  | 
CCOC(=O)c1c(-c2ccccc2)oc2cc(Cc3ccccc3)c(O)cc12 [compound 11] |  | 28 (≈ 10.4 µg/mL) | 
CNC(=O)c1c(-c2ccccc2)oc2ccc(O)c(CCN3CCCC3)c12 [compound 101] |  | 3.3 (≈ 1.2 µg/mL) | 
CNC(=O)c1c(-c2ccccc2)oc2ccc(O)c(CCN[C@H](C)Cc3cnc[nH]3)c12 [compound 260] | 4 |  | 
CNC(=O)c1c(-c2ccccc2)oc2ccc(O)c(CCN3CC(CO)(CBr)C3)c12 [compound 257] | 1.25 |  | 
CCOC(=O)c1c(-c2ccccc2)oc2ccc(O)c(CCCN3CC(O)C3)c12 [compound 197] | 7.5 |  | 
CCOC(=O)c1c(-c2ccc(O)cc2)oc2ccc(O)c(CN3CCCCC3)c12 [compound 22] | 0.19 |  | IC50 [1, 3]: 0.17 ± 0.02 µM
CCOC(=O)c1c(-c2ccccc2)oc2ccc(O)c(CCCNCC(F)F)c12 [compound 218] |  |  | MIC (Mtb strain mc^27000; [5]): 2.8 µM (≈ 1.13 µg/mL)
CN(C)C(=O)c1c(-c2ccc(O)cc2)oc2cc(O)cc(CCCN3CCC3)c12 [compound 208] | 4 |  | 
CCOC(=O)c1c(-c2ccccc2)oc2ccc(O)c(CN3CCC(C)CC3)c12 [compound 1] |  | 2.3 ± 0.2 (≈ 0.905 µg/mL) | MIC (Mtb strain mc^27000; Mycobacterium tuberculosis, […], mean ± s.d. of triplicates, NI: no inhibition): 2.3 ± 0.2 µM (≈ 0.905 µg/mL)
CCOC(=O)c1c(-c2ccccc2)oc2cc(CN3CCCCC3)cc(O)c12 [compound 36] |  | 40 (≈ 15.2 µg/mL) | 
CNC(=O)c1c(-c2ccccc2)oc2ccc(O)c(CCNC3CCCCC3)c12 [compound 145] | 10 |  | 
CNC(=O)c1c(-c2ccccc2)oc2ccc(O)c(CCN3CCC(O)CC3)c12 [compound 152] | > 40 |  | 
CNC(=O)c1c(-c2ccccc2)oc2ccc(O)c(CCN3CCS(=O)(=O)CC3)c12 [compound 138] | > 40 |  | 
CCOC(=O)c1c(-c2ccccc2)oc2ccc(O)c(CCCC3CCCC3)c12 [compound 236] | > 10 |  | 
CCOC(=O)c1c(-c2ccccc2)oc2ccc(O)c(CCNC3CCOC3)c12 (centres unmarked) [compound 254] | 2.7 |  | 
CCOC(=O)c1c(-c2ccccc2)oc2ccc(O)c(CCCN3CCCC3CCC(=O)NC)c12 (centres unmarked) [compound 184] | > 10 |  | 
CCOC(=O)c1c(-c2ccccc2)oc2ccc(O)c(CCN3CCC4(CC3)COC4)c12 [compound 267] | > 40 |  | 
